According to ChEMBL document CHEMBL1153283, “Synthesis and application of MeOSuc-Ala-Ala-Pro-Phe-CH2Cl as potent proteinase K inhibitor” (Bioorg Med Chem Lett, 2009):
Calls of active or inactive are those of the source. The calls are words filed in the database; no cut-off is given here.

Key:
[1] = Inhibition of proteinase K at […] by RT-PCR
[2] = Inhibition of proteinase K at 0.125 mM by independent digestion assay in presence of BSA
[3] = Inhibition of proteinase K at 1 mM by RT-PCR
[4] = Inhibition of proteinase K at 0.25 mM by independent digestion assay in presence of BSA
[5] = Inhibition of proteinase K at 0.05 mM by RT-PCR

| Activity [1] | Activity [2] | Activity [3] | Activity [4] | Activity [5] | SMILES |
| --- | --- | --- | --- | --- | --- |
| Active | Active | Active |  |  | COC(=O)CCC(=O)N[C@H](C)C(=O)N[C@@H](C)C(=O)N1CCC[C@H]1C(=O)N[C@H](C(=O)CCl)C(C)C |
|  |  |  | Active | Active | COC(=O)CCC(=O)N[C@H](C)C(=O)N[C@@H](C)C(=O)N1CCC[C@H]1C(=O)N[C@@H](Cc1ccccc1)C(=O)CCl |
